Tests used:
Experiment in all cases: relative viability (nuclei count vs DMSO), 5 days (fraction); higher = more cells survive
[1] = compound: C[C@]12O[C@H](C[C@]1(O)CO)n1c3ccccc3c3c4c(c5c6ccccc6n2c5c31)CNC4=O [Lestaurtinib] + CC1(C)CCC(c2ccc(Cl)cc2)=C(CN2CCN(c3ccc(C(=O)NS(=O)(=O)c4ccc(N[C@H](CCN5CCOCC5)CSc5ccccc5)c(S(=O)(=O)C(F)(F)F)c4)cc3)CC2)C1 [Navitoclax] (partner 0.5 µM)
In short: (§1)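 Lung cancer cell lines, seeded in 1536-well plates, were treated the following day by pin tool with a single drug or with five library-drug doses (not always all listed) in √10 steps on top of a fixed anchor-drug dose. Cells were fixed and nuclei stained in one step after 5 days, and nuclei were counted. Relative viability is the nuclei count for treated wells divided by that for vehicle wells, reported as medians of duplicate plates.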

[2] = compound: C1/C(=C\C2=CC=CS2)/C(=O)/C(=C/C3=CC=CS3)/C1 + CC1(C)CCC(c2ccc(Cl)cc2)=C(CN2CCN(c3ccc(C(=O)NS(=O)(=O)c4ccc(N[C@H](CCN5CCOCC5)CSc5ccccc5)c(S(=O)(=O)C(F)(F)F)c4)cc3)CC2)C1 [Navitoclax] (partner 0.5 µM)
In short: as §1

[3] = compound: C[C@]12O[C@H](C[C@]1(O)CO)n1c3ccccc3c3c4c(c5c6ccccc6n2c5c31)CNC4=O [Lestaurtinib] + Cc1nc(NC(=O)N2CCC[C@H]2C(N)=O)sc1-c1ccnc(C(C)(C)C(F)(F)F)c1 [Alpelisib] (partner 2 µM)
In short: as §1

[4] = compound: C[C@]12O[C@H](C[C@]1(O)CO)n1c3ccccc3c3c4c(c5c6ccccc6n2c5c31)CNC4=O [Lestaurtinib] + Cc1cc(Nc2cc(N3CCN(C)CC3)nc(Sc3ccc(NC(=O)C4CC4)cc3)n2)n[nH]1 [Tozasertib] (partner 0.1 µM)
In short: as §1

Cell Line | relative viability ([1]; first compound 0.005 µM) | relative viability ([1]; first compound 0.01581 µM) | relative viability ([1]; first compound 0.05 µM) | relative viability ([1]; first compound 0.1581 µM) | relative viability ([1]; first compound 0.5 µM) | relative viability ([2]; first compound 0.2 µM) | relative viability ([2]; first compound 0.6325 µM) | relative viability ([2]; first compound 2 µM) | relative viability ([2]; first compound 6.325 µM) | relative viability ([2]; first compound 20 µM) | relative viability ([3]; first compound 0.005 µM) | relative viability ([3]; first compound 0.01581 µM) | relative viability ([3]; first compound 0.05 µM) | relative viability ([3]; first compound 0.1581 µM) | relative viability ([3]; first compound 0.5 µM) | relative viability ([4]; first compound 0.005 µM) | relative viability ([4]; first compound 0.01581 µM) | relative viability ([4]; first compound 0.05 µM) | relative viability ([4]; first compound 0.1581 µM) | relative viability ([4]; first compound 0.5 µM)
LOU-NH91 | 0.698 | 0.583 | 0.438 | 0.371 | 0.272 | 0.726 | 0.744 | 0.724 | 0.581 | 0.723 | 0.757 | 0.666 | 0.623 | 0.472 | 0.416 | 0.61 | 0.602 | 0.628 | 0.496 | 0.295
LU99A | 0.707 | 0.72 | 0.373 | 0.378 | 0.211 | 0.734 | 0.796 | 0.814 | 0.788 | 0.793 | 0.413 | 0.488 | 0.233 | 0.283 | 0.192 | 0.287 | 0.297 | 0.271 | 0.218 | 0.226
LXF-289 | 0.93 | 0.986 | 0.742 | 0.707 | 0.161 | 0.939 | 0.996 | 0.929 | 0.862 | 0.908 | 1.05 | 1.09 | 0.695 | 0.91 | 0.178 | 0.229 | 0.206 | 0.194 | 0.203 | 0.141
NCI-H23 | 0.862 | 0.84 | 0.918 | 0.784 | 0.422 | 0.902 | 0.804 | 0.944 | 0.602 | 0.729 | 0.666 | 0.552 | 0.571 | 0.565 | 0.236 | 0.492 | 0.343 | 0.3 | 0.439 | 0.237
NCI-H322M | 1.28 | 0.977 | 0.563 | 0.463 | 0.461 | 1.32 | 1.2 | 1.4 | 0.587 | 0.976 | 0.853 | 0.789 | 0.508 | 0.325 | 0.405 | 0.483 | 0.276 | 0.355 | 0.397 | 0.415
NCI-H441 | 0.48 | 0.575 | 0.571 | 0.448 | 0.313 | 0.779 | 0.769 | 0.523 | 0.527 | 0.572 | 0.584 | 0.687 | 0.416 | 0.421 | 0.289 | 0.711 | 0.719 | 0.537 | 0.651 | 0.442
NCI-H460 | 1.37 | 1.01 | 0.694 | 0.894 | 0.544 | 1.26 | 1.34 | 1.12 |  | 1.14 | 0.477 | 0.406 | 0.222 | 0.198 | 0.0751 | 0.519 | 0.478 | 0.524 | 0.986 | 0.303
NCI-H520 | 1.11 | 1.15 | 1.05 | 0.455 | 0.319 | 0.98 | 1.06 | 1.15 | 0.856 | 1 | 1.05 | 0.993 | 0.764 | 0.481 | 0.274 | 0.458 | 0.468 | 0.428 | 0.388 | 0.254
NCI-H596 | 0.968 | 0.978 | 0.937 | 1.15 | 0.943 | 0.987 | 0.975 | 0.919 | 0.956 | 0.933 | 0.409 | 0.484 | 0.464 | 0.624 | 0.432 | 0.885 | 1.16 | 0.746 | 1.06 | 0.955
NCI-H647 | 1.08 | 0.945 | 0.572 | 0.465 | 0.116 | 1.15 | 1.15 | 1.1 | 1.01 | 1.17 | 0.972 | 0.87 | 0.267 | 0.231 | 0.14 | 0.375 | 0.328 | 0.188 | 0.124 | 0.126
NCI-H727 | 0.502 | 0.478 | 0.489 | 0.332 | 0.185 | 0.528 | 0.426 | 0.503 | 0.302 | 0.391 | 0.627 | 0.481 | 0.554 | 0.49 | 0.155 | 0.598 | 0.728 | 0.63 | 0.584 | 0.41
NCI-H838 | 1.21 | 1.05 | 1 | 0.532 | 0.164 | 1.23 | 1.17 | 1.14 | 0.86 | 1.05 | 1.06 | 1.05 | 0.9 | 0.576 | 0.183 | 0.275 | 0.238 | 0.275 | 0.2 | 0.171
NCI-H1355 | 0.908 | 0.889 | 0.73 | 0.457 | 0.459 | 0.958 | 0.812 | 0.904 | 0.853 | 0.933 | 0.849 | 0.885 | 0.682 | 0.392 | 0.303 | 0.51 | 0.52 | 0.377 | 0.441 | 0.287
NCI-H1395 | 1.38 | 1.28 | 1.06 | 0.912 | 0.413 | 1.28 | 1.65 | 1.23 | 1.04 | 1.15 | 1.15 | 1.14 | 0.795 | 0.813 | 0.483 | 0.773 | 0.791 | 0.64 | 0.721 | 0.46
NCI-H1437 | 1.13 | 1.2 | 1 | 1.02 | 0.689 | 1.15 | 1.09 | 1.07 | 1.03 | 0.992 | 0.958 | 1.11 | 1.01 | 0.757 | 0.461 | 0.451 | 0.438 | 0.373 | 0.309 | 0.408
NCI-H1651 | 1.12 | 1.12 | 0.79 | 1.05 | 0.471 | 1.25 | 1.01 | 1.07 |  | 1.11 | 1.1 | 0.889 | 0.913 | 0.845 | 0.529 | 0.706 | 0.756 | 0.771 | 0.694 | 0.492
